Assay in all cases: NCI tumour cell line growth inhibition, 48 h
Assay [1] relates to LOX IMVI melanoma.
Assay [2] relates to IGROV1 ovarian.
In assay [3] the test system is EKVX NSCLC.
Assay [4] has as its system RPMI-8226 leukemia.
For assay [5], the system named is HL-60(TB) leukemia.
The subject of assay [6] is NCI-H522 lung.
Assay [7] has as its system ACHN renal.
Assay [8] deals with PC-3 prostate.
Assay [9] has as its system RXF 393 renal.
Assay [10] relates to SW-620 colon.
The subject of assay [11] is HT29 colon.

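Five compound concentrations were applied to cells in 96-well plates for 48 hours; endpoints were derived by simple linear interpolation of the resulting dose-response curve. Here, GI50 denotes the concentration required for 50% inhibition of growth. TGI denotes the concentration required for complete inhibition of growth.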

Consider `Cc1ccc(C(=O)O)c(CC2Cc3c(C)cccc3C2=O)c1` (centres undefined), for which the TGI in assay [1], in assay [2], in assay [3], in assay [4], in assay [5] and in assay [6] was greater than 100 µM throughout. Besides, the TGI in assay [7], in assay [8], in assay [9], in assay [10] and in [11] was greater than 100 µM throughout.

For `O=[N+]([O-])c1c(Br)cc(Br)c2c1Nc1c(ccc(Cl)c1Cl)S2`, the TGI in [1] was 8.78 µM; in [2] it was 31.2 µM; in assay [3] it was 30.9 µM; in assay [4], greater than 100 µM; in assay [5] it was greater than 23.9 µM; in assay [6], 20.5 µM. Moreover, the TGI was 30.7 µM in assay [7]; 35 µM in assay [8]; 35.1 µM in assay [9]; 25.7 µM in assay [10]; 26 µM in [11].

For the compound `C/C=C\C(CC(=O)NCCc1cn(C(=O)OCc2ccccc2)c2ccccc12)CC(=O)OC` (centres undefined), the TGI in [2], in [3], in assay [4], in assay [6], in [7] and in assay [8] was greater than 100 µM throughout. The TGI in assay [9], in [10] and in [11] was greater than 100 µM throughout.

For `C[C@@H](O)C(=O)N1[C@@H]2CC3CC[C@]2(CS1(=O)=O)C3(C)C`, the TGI in assay [1], in [2], in assay [3], in assay [4], in assay [5] and in assay [7] was greater than 100 µM throughout. In addition, the TGI in assay [8], in assay [9], in assay [10] and in [11] was greater than 100 µM in each case.

`COc1nc2c(c(=O)n1C)N[C@H]1[C@H](OC(C)=O)[C@@H](OC(C)=O)CO[C@H]1N2`: the TGI in assay [1], in assay [2], in assay [3], in assay [4], in assay [5] and in [6] was greater than 100 µM each time. In addition, the TGI in assay [7], in assay [8], in [9], in assay [10] and in assay [11] was greater than 100 µM throughout.

Turning to `COc1cccc(CC(C)NCC(O)c2ccc(O)c(O)c2)c1` (centres undefined), the TGI in assay [1], in assay [2], in assay [3], in assay [4], in [6] and in assay [7] was greater than 100 µM throughout. The TGI in assay [8], in assay [9], in assay [10] and in assay [11] was greater than 100 µM each time.

With `Cn1nc2n(c1=O)CCCN2`, the TGI in assay [1], in assay [2], in assay [3], in assay [4], in assay [5] and in [6] was greater than 100 µM in each case. Besides, the TGI in [7], in assay [8], in assay [9], in [10] and in assay [11] was greater than 100 µM in each case.

For `CN(C)c1nc(N(C)C)nc(N(C)C23CC4CC(CC(C4)C2)C3)n1`, the TGI is 58.8 µM in assay [2]; greater than 100 µM in assay [3]; 74.9 µM in assay [4]; 41 µM in [6]; greater than 100 µM in [7]; 72 µM in assay [8]. For the same compound, the TGI in assay [9] is 67.9 µM; in assay [10], greater than 100 µM.

With `CC[N+]1(C)CCC(O)(/C=C/c2ccc(OC)cc2)C(C(=O)/C=C/c2ccc(OC)cc2)C1` (centres undefined), the TGI in assay [1] was greater than 22.5 µM; in assay [2] it was 47.1 µM; in assay [3], greater than 71.1 µM; in assay [4], 1.04 µM; in [5] it was 5.03 µM; in assay [7] it was 23.2 µM. Besides, the TGI in assay [8] was 42.6 µM; in assay [9] it was 28.4 µM; in assay [10], 7.42 µM; in assay [11] it was greater than 74.5 µM.

Consider `Cc1nc2c3c(ncn2n1)Oc1c(c(-c2ccccc2)nn1-c1ccccc1)C3c1ccc(Cl)cc1` (centres undefined), for which the TGI in assay [1], in assay [2], in [3], in assay [4], in [7] and in assay [8] was greater than 100 µM in each case. The TGI in [9], in assay [10] and in assay [11] was greater than 100 µM throughout.

As for `O=C(CCN1CCCC1)Nc1ccc2sc3ccccc3c(=O)c2n1`, the TGI is 23.6 µM in [2]; 20.1 µM in assay [3]; 21.9 µM in assay [4]; 16.3 µM in assay [5]; 15.2 µM in assay [6]; 16.3 µM in [7]. The figures for the TGI in assay [8], in assay [10] and in [11] were 22.2 µM, 19.9 µM and 6.37 µM, respectively.

With `Cc1cc(O)c(C(C)C)cc1SC#N`, the TGI was 32.6 µM in assay [1]; 37.6 µM in [2]; 33.7 µM in assay [4]; greater than 100 µM in assay [5]; 24.9 µM in [6]; 30.1 µM in [7]. In addition, the TGI in assay [8] came to 34.4 µM; in assay [9], 29.1 µM; in assay [10] it was 44.5 µM.

For `CCOP(=O)(OCC)C(Nc1cccc(F)c1)c1ccccc1` (centres undefined), the TGI was greater than 100 µM in assay [1]; greater than 100 µM in assay [2]; greater than 100 µM in assay [3]; greater than 100 µM in assay [4]; 55.3 µM in assay [5]; greater than 100 µM in assay [6]. Besides, the TGI in assay [7], in [8], in assay [9] and in [11] was greater than 100 µM each time.

In the case of `CC(=O)OCC1OC(n2c3c(c(-c4cccc5ccccc45)c(C#N)c2=S)CCCC3)C(OC(C)=O)C(OC(C)=O)C1OC(C)=O` (centres undefined), the TGI in assay [1], in assay [2], in [3], in assay [5], in [6] and in assay [7] was greater than 100 µM in each case. The TGI in assay [8], in assay [9], in assay [10] and in assay [11] was greater than 100 µM throughout.

`C=C(CCC(C)C1CCC2C3=C(C(=O)CC21C)C1(C)CCC(=O)[C@@H](C)C1CC3=O)C(C)C(=O)O` (some centres undefined): the TGI in assay [1] is 33.8 µM; in assay [2], greater than 100 µM; in assay [3], greater than 100 µM; in assay [5], 32.6 µM; in assay [6], greater than 100 µM; in [7], 88.6 µM. In addition, the TGI in assay [8] was greater than 100 µM; in [9] it was 57.4 µM; in assay [10] it was greater than 100 µM; in [11], greater than 100 µM.

Take `Clc1ccc(N2N=C(c3cccc(Nc4ccncc4)c3)CC2c2ccc3c(c2)OCO3)cc1` (centres undefined): the GI50 in assay [2] is 1.73 µM; in assay [3], 2.9 µM; in assay [5], 1.93 µM; in [7] it was 1.65 µM; in assay [8], 1.58 µM; in assay [10], 1.63 µM. In assay [11], the GI50 was 2.44 µM. Besides, the TGI was found to be 3.67 µM in [2]; 13.3 µM in assay [3]; 4.16 µM in assay [5]; 3.13 µM in [7]; 3.27 µM in [8]; 3.15 µM in [10]. The compound also registered a TGI in assay [11] of 6.55 µM.

Consider `C/C(=N\NC(=S)N1CCCCC1)c1cccc(C)n1`, for which the TGI is 11.3 µM in [1]; 12.8 µM in assay [2]; 31.2 µM in assay [3]; greater than 100 µM in [4]; 10.6 µM in assay [6]; 2.67 µM in assay [7]. The TGI in [8] worked out at 19.7 µM; in assay [9], 14.4 µM; in assay [10], 18.3 µM; in [11], 16.2 µM.

For `N#Cc1nc(CCCCCN2C(=O)c3ccccc3C2=O)oc1N`, the TGI in [1] is greater than 100 µM; in [2], greater than 100 µM; in assay [3], greater than 100 µM; in [4] it was greater than 100 µM; in [6], 75.2 µM; in assay [7] it was greater than 100 µM. Moreover, the TGI in assay [8], in assay [9], in assay [10] and in [11] was greater than 100 µM in each case.

On to `Nc1ncnc2c1ncn2C1CCC(COS(N)(=O)=O)C1` (centres undefined), for which the TGI in assay [1], in assay [2], in assay [3], in assay [4], in assay [5] and in [7] was greater than 100 µM each time. Moreover, the TGI in [8], in assay [9], in [10] and in [11] was greater than 100 µM each time.

With `COc1cc2c(cc1OCCCC(=O)Nc1cc(C(=O)Nc3cc(C(=O)Nc4cc(C(=O)NCCCN(C)C)n(C)n4)n(C)n3)n(C)n1)N=CC1CCCN1C2=O` (centres undefined), the TGI in assay [1] is greater than 100 µM; in [2], 7.98 µM; in [3], greater than 100 µM; in assay [4], greater than 100 µM; in assay [5] it was greater than 100 µM; in [7] it was 38.4 µM. Moreover, the TGI in assay [8] was greater than 100 µM; in assay [9] it was 43.2 µM; in [10], greater than 100 µM; in [11], 51.3 µM.

In the case of `CN(C)CCNC(=O)c1ccc(NCCCN(C)CCCNc2ccc3c(=O)n(CCN(C)C)c(=O)n4c5ccccc5c(=O)c2c34)c2c(=O)c3ccccc3[nH]c12`, the TGI is 0.119 µM in assay [1]; 1.16 µM in assay [2]; 0.567 µM in assay [3]; 0.157 µM in assay [4]; 0.273 µM in assay [5]; 0.168 µM in assay [6]. For the same compound, the TGI came out at 0.653 µM in [7], 0.249 µM in assay [8], 0.271 µM in [9] and 0.161 µM in [11].

On to `CCOC(=O)C(NC(=O)N(C1=NCC(C)S1)C1CCCCC1)(OC)C(F)(F)F` (centres undefined), for which the TGI is 60.8 µM in assay [1]; greater than 100 µM in assay [3]; 59.5 µM in [5]; 83.4 µM in assay [6]; 89.9 µM in assay [7]; greater than 100 µM in assay [8]. Besides, the TGI in [9] is 45.5 µM; in [10] it was greater than 100 µM; in assay [11], 53 µM.

As for `N=c1oc2ccc3ccccc3c2cc1C(N)=O`, the TGI was greater than 100 µM in assay [1]; 70.8 µM in assay [2]; greater than 100 µM in assay [4]; greater than 100 µM in assay [5]; greater than 100 µM in assay [7]; greater than 100 µM in [8]. For the same compound, the TGI in assay [9], in assay [10] and in assay [11] was greater than 100 µM in each case.

On to `COc1cc2nc(-c3ccc4ccccc4c3)[nH]c(=O)c2cc1OC`, for which the TGI in assay [1], in assay [2], in assay [3], in assay [4], in assay [5] and in assay [6] was greater than 100 µM throughout. Also, the TGI in [7], in [8], in [9] and in assay [11] was greater than 100 µM each time.

As to `COc1ccc2c(c1)C(N)=C(c1ccccc1)C2=O`, the TGI in [1], in assay [2], in assay [3], in assay [4], in assay [5] and in assay [6] was greater than 100 µM in each case. The TGI in [7], in assay [8], in [10] and in assay [11] was greater than 100 µM each time.

Turning to `O=C(NCc1cccc(C(F)(F)F)c1)c1cc2sccc2nc1C(F)(F)F`, the TGI in assay [2], in [3], in [4], in assay [6], in assay [7] and in [8] was greater than 100 µM in each case. For the same compound, the TGI in assay [9], in [10] and in [11] was greater than 100 µM in each case.

The values are drawn from PubChem BioAssay (NCI).
